Data as given in patent US20200054671A1, “TREATMENT OF ANXIETY DISORDER AND AUGMENTATION OF ANTI-ANXIETY INTERVENTIONS BY ADMINISTRATION OF NOBLE GAS CONTAINING MIXTURES” (NOBILIS THERAPEUTICS, INC., priority 2016, published 2020).

Columns and labels:
[1] = test system: patients with panic disorder; test: Tolerability of xenon therapy in the clinical trial; assay type: in vivo, human; settings: mainly headache and dizziness
Protocol: This investigator-initiated study was performed under a prospective clinical trial protocol approved by the Institute of Mental Health and Addictology, which is accredited by the Ministry of Health of the Russian Federation to conduct clinical trials (#57689). Study conduct was in compliance with all ethical standards and good clinical practice. Ninety outpatients with a diagnosis of “panic disorder» (F41.0) according to ICD-10 were enrolled through the Institute of Mental Health and Addictology. Five patients dropped out of the study due to minor side effects, predominantly lightheadedness and headaches, and 4 patients dropped out of the study for unspecified reasons. As the intention to treat analysis was not utilized due to the open label design of the study, 81 patients with PD (49 women and 32 men), mean age was 35.2 years (range […]) were studied. Patients were randomized into 2 groups: with “pure” PD (group 1) and “comorbid” PD, when it was co-diagnosed with other mental illnesses (group 2). […]
Medical grade xenon (“medksenon»®, 99.9999%, manufacturer: Atommedcenter, Moscow, Russia) and medical grade oxygen in separate containers were admixed. […] The patients were assessed subjectively by the provider, while the vital signs (pulse, blood pressure, oxygen saturation) were continuously monitored.

[2] = molecular target: NMDA receptor (Homo sapiens, UniProt Q05586); settings: glycine site of the NMDA receptor; cited from earlier work
[3] = test system: patients with panic disorder; test: Clinical Global Impression Scale, severity of the disease subscale (CGI-S); assay type: in vivo, human
Protocol: This investigator-initiated study was performed under a prospective clinical trial protocol approved by the Institute of Mental Health and Addictology, which is accredited by the Ministry of Health of the Russian Federation to conduct clinical trials (#57689). Study conduct was in compliance with all ethical standards and good clinical practice. Ninety outpatients with a diagnosis of “panic disorder» (F41.0) according to ICD-10 were enrolled through the Institute of Mental Health and Addictology. Five patients dropped out of the study due to minor side effects, predominantly lightheadedness and headaches, and 4 patients dropped out of the study for unspecified reasons. As the intention to treat analysis was not utilized due to the open label design of the study, 81 patients with PD (49 women and 32 men), mean age was 35.2 years (range […]) were studied. Patients were randomized into 2 groups: with “pure” PD (group 1) and “comorbid” PD, when it was co-diagnosed with other mental illnesses (group 2). All patients with isolated PD (Group 1, n=42) received monotherapy with xenon at the aforementioned schedule, while the majority of patients (94.9%) with PD and comorbid conditions, which were predominantly depression (group 2, n=39), in addition to xenon administration continued treatment for comorbid psychiatric disorders, which mainly consisted of antidepressants (SSRIs and SNRIs). In these patients, the reason for xenon treatment was the increase in the frequency and severity of panic attacks despite ongoing treatment with stable pharmacotherapy of at least 3 to 6 months' duration.
Administration of xenon was performed through inhalation of xenon-oxygen mixtures that were escalated from 15%/85% to 30%/70% with titration increments of 5% per session. Each patient in the study underwent between 6 and 7 treatments with xenon-oxygen mixture. The first three sessions were carried out daily and from session 4 onward—every other day. The selected dosing regime and the composition of the gas mixtures were based on the historical evidence of safety of subanesthetic use of xenon in imaging.
Medical grade xenon (“medksenon»®, 99.9999%, manufacturer: Atommedcenter, Moscow, Russia) and medical grade oxygen in separate containers were admixed. Mixing and administration of gases in preset concentration and volume was accomplished with the use of the medical device MAGi-AMTS1, which enables the operator to adjust the concentration of xenon in the gas mixture, and which contains the electronic flow meter with a software module that allows for such adjustments. Administration of xenon-oxygen mixture to the patient was carried out via a face mask. Patients were asked to slowly inhale, holding breath for 5 to 10 seconds; exhale into the loop and after 35-40 seconds exhale outside the contour and breath in the new portion of gas mixture. Xenon inhalation lasted from 2.5 to 4 minutes, and the xenon consumption was capped at 3.0 liters per procedure. The patients were assessed subjectively by the provider, while the vital signs (pulse, blood pressure, oxygen saturation) were continuously monitored.
Patients were evaluated after each xenon inhalation and at 30 and 180 days after completion of treatment. To this end, we employed clinical psychopathological and clinical catamnestic methods, and psychometric scales that are widely used internationally to assess the treatment of mental disorders. Scale Assessment, Zung Self-Rating Anxiety Scale (SAS) was performed prior to starting therapy (V1), and at 1 and 6 months after treatment. According to this scale, SAS index of less than 45 points corresponds to the normal value, 45-59—to mild-to-moderate degree of anxiety, 60-74—to high degree of anxiety, more than 75—to an extremely high-level of anxiety. […]

[4] = «Pure PD» (n = 42), total given 39

[Xe] [xenon]
patients dropping out from the study due to side effects ([1]; 5 patients): 5.8% | tolerability of xenon therapy ([1]; side effects, were rare): generally well tolerated | mechanism of inhibition of NMDA receptor activity [2]: competitive inhibition of the co-agonist glycine | CGI-S, V2: Moderately expressed disease, share of patients ([3]; Comorbid PD (n = 39), total 42): 2.4% | CGI-S, V2: Serious disease, share of patients ([3]; Comorbid PD (n = 39), total 42): 4.8% | CGI-S, V2: Significantly expressed disease, share of patients ([3]; Comorbid PD (n = 39), total 42): 92.9% | CGI-S, V3: Significantly expressed disease, share of patients ([3]; Comorbid PD (n = 39), total 42): 88.1% | CGI-S, V4: Moderately expressed disease, share of patients ([3]; Comorbid PD (n = 39), total 42): 52.4% | CGI-S, V4: Significantly expressed disease, share of patients ([3]; Comorbid PD (n = 39), total 42): .0% | CGI-S, V4: Weakly expressed disease, share of patients ([3]; Comorbid PD (n = 39), total 42): 47.6% | CGI-S, V5: Borderline state, share of patients ([3]; Comorbid PD (n = 39), total 42): 14.3% | CGI-S, V5: Moderately expressed disease, share of patients ([3]; Comorbid PD (n = 39), total 42): .0% | CGI-S, V5: Significantly expressed disease, share of patients ([3]; Comorbid PD (n = 39), total 42): .0% | CGI-S, V5: Weakly expressed disease, share of patients ([3]; Comorbid PD (n = 39), total 42): 85.7% | CGI-S, V6: Normal state, share of patients ([3]; Comorbid PD (n = 39), total 42): 11.9% | CGI-S, V6: Weakly expressed disease, share of patients ([3]; Comorbid PD (n = 39), total 42): .0% | CGI-S, V3: Moderately expressed disease, share of patients ([3]; Comorbid PD (n = 39), total 42, after the third procedure): 11.9% | CGI-S, V6: Borderline state, share of patients ([3]; Comorbid PD (n = 39), total 42, upon completion of xenon treatments): 88.1% | CGI-S, V2: Moderately expressed disease, share of patients ([3]; Total (n = 81)): 24.7% | CGI-S, V2: Serious disease, share of patients ([3]; Total (n = 81)): 2.5% | CGI-S, V2: Significantly expressed disease, share of patients ([3]; Total (n = 81)): 72.8% | CGI-S, V3: Moderately expressed disease, share of patients ([3]; Total (n = 81)): 29.6% | CGI-S, V3: Significantly expressed disease, share of patients ([3]; Total (n = 81)): 70.4% | CGI-S, V4: Moderately expressed disease, share of patients ([3]; Total (n = 81)): 51.9% | CGI-S, V4: Significantly expressed disease, share of patients ([3]; Total (n = 81)): 23.5% | CGI-S, V4: Weakly expressed disease, share of patients ([3]; Total (n = 81)): 24.7% | CGI-S, V5: Borderline state, share of patients ([3]; Total (n = 81)): 7.4% | CGI-S, V5: Moderately expressed disease, share of patients ([3]; Total (n = 81)): 45.7% | CGI-S, V5: Significantly expressed disease, share of patients ([3]; Total (n = 81)): 1.2% | CGI-S, V5: Weakly expressed disease, share of patients ([3]; Total (n = 81)): 45.7% | CGI-S, V6: Borderline state, share of patients ([3]; Total (n = 81)): 85.2% | CGI-S, V6: Normal state, share of patients ([3]; Total (n = 81)): 6.2% | CGI-S, V6: Weakly expressed disease, share of patients ([3]; Total (n = 81)): 8.6% | CGI-S, V2: Moderately expressed disease, share of patients [3, 4]: 48.7% | CGI-S, V2: Serious disease, share of patients [3, 4]: .0% | CGI-S, V2: Significantly expressed disease, share of patients [3, 4]: 51.3% | CGI-S, V3: Significantly expressed disease, share of patients [3, 4]: 51.3% | CGI-S, V4: Moderately expressed disease, share of patients [3, 4]: 51.3% | CGI-S, V4: Significantly expressed disease, share of patients [3, 4]: 48.7% | CGI-S, V4: Weakly expressed disease, share of patients [3, 4]: .0% | CGI-S, V5: Borderline state, share of patients [3, 4]: .0% | CGI-S, V5: Moderately expressed disease, share of patients [3, 4]: 94.9% | CGI-S, V5: Significantly expressed disease, share of patients [3, 4]: 2.6% | CGI-S, V5: Weakly expressed disease, share of patients [3, 4]: 2.6% | CGI-S, V6: Normal state, share of patients [3, 4]: .0% | CGI-S, V6: Weakly expressed disease, share of patients [3, 4]: 17.9% | CGI-S, V3: Moderately expressed disease, share of patients ([3]; «Pure PD» (n = 42), total given 39, after the third procedure): 48.7% | CGI-S, V6: Borderline state, share of patients ([3]; «Pure PD» (n = 42), total given 39, upon completion of xenon treatments): 82.1%
